Counter-ions that a name gives are not always drawn.
Test system: IL-1β release upon NLRP3 activation in peripheral blood mononuclear cells (PBMC)
Assay: PBMC IC50 Determination Assay
Format: cell-based
Details: Homo sapiens; PBMC from buffy coats, LPS 3 h, compound 30 min, then ATP (5 mM) or nigericin (10 μM) 1 h; IL-1β in media by ELISA (Protocol A) or HTRF (Protocol B)
Protocol: The compounds of the present disclosure were tested for their inhibitory activity against IL-1β release upon NLRP3 activation in peripheral blood mononuclear cells (PBMC).
Protocol A. PBMC were isolated from buffy coats by density gradient centrifugation on Histopaque-1077 (Sigma, cat no. 10771). Isolated cells were seeded into the wells of a 96-well plate and incubated for 3 h with lipopolysaccharide (LPS). Following medium exchange, the compounds of the present disclosure were added (a single compound per well) and the cells were incubated for 30 min. Next, the cells were stimulated either with ATP (5 mM) or nigericin (10 μM) for 1 h and the cell culture media from the wells were collected for further analysis.
The release of IL-1β into the media was determined by a quantitative detection of IL-1β in the media using an IL-1p enzyme-linked immunosorbent assay (ELISA) Ready-SET-Go!, eBioscience cat. No. 88-7261-88. Briefly, in a first step, high affinity binding plates (Corning, Costar 9018 or NUNC Maxisorp Cat No. 44-2404) were coated overnight at 4° C. with specific capture antibody included in the kit (anti-human IL-1β ref 14-7018-68). Subsequently, plates were blocked with blocking buffer for 1 h at room temperature (rt) and after washing with a buffer (PBS with 0.05% Tween-20) incubated with protein standard and culture media. After 2 h of incubation at rt, plates were washed and incubated with biotinylated detection antibody included in the kit (anti-human IL-1β Biotin ref. 33-7110-68) for 1 h at rt. Plates were washed and incubated with HRP-streptavidin for 30 min at rt and washed again. The signal was developed after addition of 3,3′,5,5′-tetramethylbenzidine-peroxidase (TMB) until colour appeared and the reaction was stopped by 2 M H2SO4. A microplate spectrophotometer (BioTek) was used to detect signals with 450 nm. The detection range of IL-1β ELISA was […].
Protocol B. PBMC were isolated from buffy coats by density gradient centrifugation on Histopaque-1077 (Sigma, cat no. 10771). Isolated cells were seeded into the wells (280,000 cells/well) of a 96-well plate and incubated for 3 h with lipopolysaccharide (LPS, 1 μg/mL diluted 1000× from a 1 mg/mL stock solution). The compounds of the present disclosure were added (a single compound per well) and the cells were incubated for 30 min. Next, the cells were stimulated with ATP (5 mM final concentration diluted 20× from a 100 mM stock solution) for 1 h and the cell culture media from the wells were collected for further analysis.
The release of IL-1β into the media was determined by quantitative detection of IL-1β in the media using HTRF®, CisBio cat. No. 62HIL1BPEH. Briefly, cell culture supernatant were dispensed directly into the assay plate containing antibodies labelled with the HTRF® donor and acceptor. A microplate spectrophotometer (BMG) was used to detect signals at 655 nm and 620 nm. The detection range of IL-1β HTRF® was 39-6500 μg/mL.

## C[C@@H]1CN(CC(=O)Nc2ncccn2)C(=O)c2cc3sc(Cl)cc3n21 (racemic) [Compound 9, N-Pyrimidin-2-yl-2-[rac-(12R)-4-chloro-12-methyl-9-oxo-5-thia-1,10-diazatricyclo[6.4.0.02,6]dodeca-2(6),3,7-trien-10-yl]acetamide]
  IC50: 1000 to 3000 nM

## CC1Cn2cccc2C(=O)N1CC(=O)N[C@@H]1CCCN(C2CC2)C1 (stereo partly drawn) [Compound 1, N-[(3R)-1-Cyclopropyl-3-piperidyl]-2-(3-methyl-1-oxo-3,4-dihydropyrrolo[1,2-a]pyrazin-2-yl)acetamide hydrochloride]
  IC50: 3000 to 10000 nM

## C[C@]1(O)C[C@@H](NC(=O)CN2CC3(CC3)n3c(cc4sc(Cl)cc43)C2=O)C1 [Compound 2, cis-2-(4-Chloro-9-oxo-spiro[5-thia-1,10-diazatricyclo[6.4.0.0^2.6]dodeca-2(6),3,7-triene-12,1′-cyclopropane]-10-yl)-N-(3-hydroxy-3-methylcyclobutyl) acetamide]
  IC50: 1000 to 3000 nM

## O=C(CN1CC2(CC2)n2c(cc3sc(Cl)cc32)C1=O)Nc1ncccn1 [Compound 3, 2-(4-Chloro-9-oxo-spiro[5-thia-1,10-diazatricyclo[6.4.0.02,6]dodeca-2(6),3,7-triene-12,1′-cyclopropane]-10-yl)-N-pyrimidin-2-yl-acetamide]
  IC50: 100 to 1000 nM

## O=C(CN1CC2(CC2)n2c(cc3sc(Cl)cc32)C1=O)NC1CC2(COC2)C1 [Compound 4]
  IC50: 1000 to 3000 nM

## Cc1nc(NC(=O)CN2CC3(CC3)n3c(cc4sc(Cl)cc43)C2=O)ns1 [Compound 5, 2-(4-Chloro-9-oxo-spiro[5-thia-1,10-diazatricyclo[6.4.0.0^2,6]dodeca-2(6),3,7-triene-12,1′-cyclopropane]-10-yl)-N-(5-methyl-1,2,4-thiadiazol-3-yl)acetamide]
  IC50: 1000 to 3000 nM

## O=C(CN1CC2(CC2)n2c(cc3sc(Cl)cc32)C1=O)Nc1ncc(F)cn1 [Compound 6, 2-(4-Chloro-9-oxo-spiro[5-thia-1,10-diazatricyclo[6.4.0.0^2.6]dodeca-2(6),3,7-triene-12,1′-cyclopropane]-10-yl)-N-(5-fluoropyrimidin-2-yl)acetamide]
  IC50: < 100 nM

## CCn1cc2c(n1)C1(CC1)CN(CC(=O)Nc1ncc(F)cn1)C2=O [Compound 7, 2-(2-Ethyl-4-oxo-spiro[6H-pyrazolo[4,3-c]pyridine-7,1′-cyclopropane]-5-yl)-N-(5-fluoropyrimidin-2-yl)acetamide]
  IC50: 1000 to 3000 nM

## CC(C)c1cc2n(n1)C1(CC1)CN(CC(=O)Nc1ncccn1)C2=O [Compound 8, 2-(2-Isopropyl-4-oxo-spiro[6H-pyrazolo[1,5-a]pyrazine-7,1′-cyclopropane]-5-yl)-N-pyrimidin-2-yl-acetamide]
  IC50: 3000 to 10000 nM

## C[C@@H]1CN(CC(=O)N[C@H]2C[C@@](C)(O)C2)C(=O)c2cc3sc(Cl)cc3n21 [Compound 10, 2-[(12R)-4-Chloro-12-methyl-9-oxo-5-thia-1,10-diazatricyclo[6.4.0.02,6]dodeca-2(6),3,7-trien-10-yl]-N-(3-hydroxy-3-methyl-cyclobutyl)acetamide]
  IC50: 3000 to 10000 nM

## CC(C)c1cc2n(c1)C1(CC1)CN(CC(=O)Nc1ncccn1)C2=O [Compound 11, 2-(7-Isopropyl-1-oxo-spiro[3H-pyrrolo[1,2-a]pyrazine-4,1′-cyclopropane]-2-yl)-N-pyrimidin-2-yl-acetamide]
  IC50: 3000 to 10000 nM

## CC(C)c1nc2c(s1)C(=O)N(CC(=O)Nc1ncccn1)CC21CC1 [Compound 12, 2-(2-Isopropyl-4-oxo-spiro[6H-thiazolo[5,4-c]pyridine-7,1′-cyclopropane]-5-yl)-N-pyrimidin-2-yl-acetamide]
  IC50: 3000 to 10000 nM

## CCc1nc2c(s1)C(=O)N(CC(=O)Nc1ncccn1)CC21CC1 [Compound 13, 2-(2-Ethyl-4-oxo-spiro[6H-thiazolo[5,4-c]pyridine-7,1′-cyclopropane]-5-yl)-N-pyrimidin-2-yl-acetamide]
  IC50: 3000 to 10000 nM

## CCc1cc2c(s1)C(=O)N(CC(=O)Nc1ncccn1)CC21CC1 [Compound 14, 2-(2-Ethyl-7-oxo-spiro[5H-thieno[2,3-c]pyridine-4,1′-cyclopropane]-6-yl)-N-pyrimidin-2-yl-acetamide]
  IC50: 100 to 1000 nM

## O=C(CN1CC2(CC2)c2nc(C3CC3)sc2C1=O)Nc1ncccn1 [Compound 15, 2-(2-Cyclopropyl-4-oxo-spiro[6H-thiazolo[5,4-c]pyridine-7,1′-cyclopropane]-5-yl)-N-pyrimidin-2-yl-acetamide]
  IC50: 100 to 1000 nM

## CCOC(=O)c1cnc(NC(=O)CN2CC3(CC3)c3nc(C4CC4)sc3C2=O)nc1 [Compound 16, Ethyl 2-[[2-(2-cyclopropyl-4-oxo-spiro[6H-thiazolo[5,4-c]pyridine-7,1′-cyclopropane]-5-yl)acetyl]amino]pyrimidine-5-carboxylate]
  IC50: 1000 to 3000 nM

## CC(C)n1cc2c(n1)C1(CC1)CN(CC(=O)Nc1ncccn1)C2=O [Compound 17, 2-(2-Isopropyl-4-oxo-spiro[6H-pyrazolo[4,3-c]pyridine-7,1′-cyclopropane]-5-yl)-N-pyrimidin-2-yl-acetamide]
  IC50: 3000 to 10000 nM

## CCc1cc2c(o1)C1(CC1)CN(CC(=O)Nc1ncccn1)C2=O [Compound 18, 2-(2′-Ethyl-4′-oxo-4′H-spiro[cyclopropane-1,7′-furo[3,2-c]pyridin]-5′(6′H)-yl)-N-(pyrimidin-2-yl)acetamide]
  IC50: 100 to 1000 nM

## CC(C)c1cc2c([nH]1)C(=O)N(CC(=O)Nc1ncccn1)CC21CC1 [Compound 19, 2-(2′-Isopropyl-7′-oxo-1′,7′-dihydrospiro[cyclopropane-1,4′-pyrrolo[2,3-c]pyridin]-6′(5′H)-yl)-N-(pyrimidin-2-yl)acetamide]
  IC50: 1000 to 3000 nM

## CC(C)c1cc2c(n1C)C(=O)N(CC(=O)Nc1ncccn1)CC21CC1 [Compound 20, 2-(2′-Isopropyl-1′-methyl-7′-oxo-1′,7′-dihydrospiro[cyclopropane-1,4′-pyrrolo[2,3-c]pyridin]-6′(5′H)-yl)-N-(pyrimidin-2-yl)acetamide]
  IC50: 1000 to 3000 nM

## CC(C)c1nc2c(n1C)C(=O)N(CC(=O)Nc1ncccn1)CC21CC1 [Compound 21]
  IC50: 10000 to 50000 nM

## CC(C)c1cc2n(n1)[C@H](C)CN(CC(=O)Nc1ncccn1)C2=O [Compound 22, 2-[(7R)-7-Methyl-4-oxo-2-(propan-2-yl)-4H,5H,6H,7H-pyrazolo[1,5-a]pyrazin-5-yl]-N-(pyrimidin-2-yl)acetamide]
  IC50: 10000 to 50000 nM

## CCNc1cc2c(s1)C(=O)N(CC(=O)Nc1ncccn1)CC21CC1 [Compound 23, 2-(2′-(Ethylamino)-7′-oxo-5′H-spiro[cyclopropane-1,4′-thieno[2,3-c]pyridin]-6′(7′H)-yl)-N-(pyrimidin-2-yl)acetamide]
  IC50: 1000 to 3000 nM

## Cc1cc2c(s1)C(=O)N(CC(=O)Nc1ncccn1)CC21CC1 [Compound 24, 2-(2′-Methyl-7′-oxo-5′H-spiro[cyclopropane-1,4′-thieno[2,3-c]pyridin]-6′(7′H)-yl)-N-(pyrimidin-2-yl)acetamide]
  IC50: 1000 to 3000 nM

## CC(C)c1cc2c(s1)C(=O)N(CC(=O)Nc1ncccn1)CC21CC1 [Compound 25, 2-(2′-Isopropyl-7′-oxo-5′H-spiro[cyclopropane-1,4′-thieno[2,3-c]pyridin]-6′(7′H)-yl)-N-(pyrimidin-2-yl)acetamide]
  IC50: 100 to 1000 nM

## O=C(CN1CC2(CC2)c2cc(C3CC3)sc2C1=O)Nc1ncccn1 [Compound 26, 2-(2′-Cyclopropyl-7′-oxo-5′H-spiro[cyclopropane-1,4′-thieno[2,3-c]pyridin]-6′(7′H)-yl)-N-(pyrimidin-2-yl)acetamide]
  IC50: 100 to 1000 nM

## CC1(c2cc3c(s2)C(=O)N(CC(=O)Nc2ncccn2)CC32CC2)CC1 [Compound 27, 2-(2′-(1-Methylcyclopropyl)-7′-oxo-5′H-spiro[cyclopropane-1,4′-thieno[2,3-c]pyridin]-6′(7′H)-yl)-N-(pyrimidin-2-yl)acetamide]
  IC50: 100 to 1000 nM

## Cc1nc2c(cc3n2C(C)CN(CC(=O)Nc2ncccn2)C3=O)s1 (centres unmarked) [Compound 41]
  IC50: 10000 to 50000 nM

## CCc1cc2c(s1)C(=O)N(CC(=O)Nc1ccc3c(c1)[nH]c(=O)n3C)CC21CC1 [Compound 44, 2-(2′-Ethyl-7′-oxo-5′H-spiro[cyclopropane-1,4′-thieno[2,3-c]pyridin]-6′(7′H)-yl)-N-(1-methyl-2-oxo-2,3-dihydro-1H-benzo[d]imidazol-5-yl)acetamide]
  IC50: 1000 to 3000 nM

From patent US20260008780A1, “SUBSTITUTED 3,4-DIHYDROISOQUINOLIN-1(2H)-ONE DERIVATIVES AND RELATED USES” (NodThera Limited, priority 2022, published 2026)
